As usually defined, the viability is a read-out of living cells in per cent, often relative to untreated cells. One may read the IC50 as the concentration needed to halve the response being measured. The melting point is the temperature of the solid-liquid transition.

Series [1] concerns human lung carcinoma A549 cells. The series can be described thus: In vitro antiproliferative assay (SRB), A549. The format is cell-based. The conditions noted are these: mean ± SD; for IC50 A549: 72 h exposure; for IC50: Homo sapiens, A549, 72 h exposure. Here is the method: Biphenotypic B myelomonocytic leukemia MV4-11, human lung carcinoma A549, human breast carcinoma MCF-7, and normal mouse fibroblast BALB/3T3 cells were obtained from American Type Culture Collection (Rockville, Maryland, USA). All the cell lines are being maintained at the Institute of Immunology and Experimental Therapy, Wroclaw, Poland. MV4-11 cells were cultured in RPMI 1640 medium (Gibco, UK) with 2 mM L-glutamine adjusted to contain 1.0 mM sodium pyruvate, and 10% fetal bovine serum (FBS) (all from Sigma-Aldrich, Germany). A549 cells were cultured in RPMI 1640+ Opti-MEM (1:1) (both from Gibco, UK), MCF-7 cells in Eagle medium (IIET, Wroclaw, Poland), BALB/3T3 in Dulbecco medium (IIET, Poland) supplemented with 2 mM L-glutamine and 1.0 mM sodium pyruvate, 10% fetal bovine serum (all from Sigma-Aldrich, Germany). The MCF-7 cell culture was supplemented with 0.8 mg/l of insulin (Sigma-Aldrich, Germany). All culture media were supplemented with 100 units/ml penicillin, and 100 µg/ml streptomycin (both from Polfa Tarchomin S.A., Poland). All cell lines were grown at 37 °C with 5% CO2 humidified atmosphere (Łączkowski et al. [2014], [2016a]). Prior to usage, the compounds were dissolved in DMSO and culture medium (1: 9) to the concentration of 1 mg/ml, and subsequently diluted in culture medium to reach the required concentrations (0.1, 1, 10, and 100 µg/ml) (Łączkowski et al. [2014], [2016a]). Twenty-four hours prior to the addition of the tested compounds, the cells counted using Burker hemocytometer were plated in 96-well plates (Sarstedt, Germany) at a density of 1 × 10^4 cells per well. The assay was performed after 72 h of exposure to varying concentrations of the tested agents. The in vitro cytotoxic effect of all agents was examined using the SRB assay for adherent cells (A549, MCF-7, and BALB/3T3) or MTT assay for leukemia cells (MV4-11) as described previously. […] Each compound in each concentration was tested in triplicate in a single experiment, which was repeated 3–7 times (Rubinstein et al. [1990]; Bramson et al. [1995]). Cells were attached to the bottom of plastic wells by fixing them with cold 50% TCA (trichloroacetic acid, POCH, Gliwice, Poland) on top of the culture medium in each well. The plates were incubated at 4 °C for 1 h and then washed five times with tap water. The cellular material fixed with TCA was stained with 0.1% sulforhodamine B (SRB, Sigma-Aldrich, Germany) and dissolved in 1% acetic acid (POCH, Gliwice, Poland) for 30 min. Unbound dye was removed by rinsing (4×) in 1% acetic acid. The protein-bound dye was extracted with 10 mM unbuffered Tris base (Sigma-Aldrich, Germany) for determination of the optical density (λ = 540 nm) in a computer-interfaced, 96-well Synergy H4 (BioTek Instruments USA) photometer microtiter plate reader (Sidoryk et al. [2012]).

Series [2] is described as follows: Cell viability assay (MTT), VERO. The format is cell-based, Cercopithecus aethiops. The conditions noted are these: African green monkey (Cercopithecus aethiops), VERO kidney epithelial cells. In outline: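 L929 and VERO cells seeded at 1.0 × 10^4/well, attached 24 h, then exposed 24 h to compounds at 0.9–125.00 μg/ml (from DMSO stock). MTT (1 mg/ml) added for 2 h at 37 °C, formazan dissolved in DMSO, OD read at 550 nm. Viability expressed as percentage of 2.5% DMSO-treated controls; triplicate.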

Series [3] is described as follows: Cell viability assay (MTT), L929. The series is classed as cell-based, Mus musculus. The conditions noted are these: mouse, L929 fibroblast cells. The method, then: The epithelial cell line VERO (ATCC-Catalog No. CCL-81^TM), derived from the kidney of the African green monkey, Cercopithecus aethiops and fibroblast cell line L-929 (ATCC-Catalog No. CCL-1^TM), derived from Mus musculus (http://www.atcc.org) were grown in Iscoves’s Modified Dulbecco’s Medium (IMDM) supplemented with 10% (v/v) fetal bovine serum (FBS), plus 2 mM L-glutamine, 100 U/ml penicillin, 100.00 µg/ml streptomycin, 5 × 10^−5 M 2-mercaptoethanol and maintained at 37 °C in a 10% CO2 atmosphere. Subcultures were performed via enzymatic cell dissociation in 0.25% trypsin. After dissociation, the cells were placed in culture medium at 4 °C with 10% FBS to inhibit the action of trypsin. The isolated cells were centrifuged for 10 min at 1000×g at 4 °C, and the cells were grown in new bottles. This procedure was repeated when cells reached a confluence of ~90%. All commercial reactants and solvents were purchased from either Sigma-Aldrich Laborchemikalien GmbH (Dzitko et al. [2014]).
Suspensions of the compounds 4a–l were freshly prepared (5 mg/ml DMSO) before the cells were exposed, and diluted to appropriate concentrations; 0.9, 1.8, 3.9, 7.8, 15.6, 31.2, 62.5, and 125.00 μg/ml with the culture medium. Cells treated with 2.5% DMSO-solvent served as a control in each experiment.
The effects of tested compounds on the viability of mouse fibroblasts L929 and […] VERO cells were evaluated using the MTT assay. The MTT assay was used according to international standards: ISO 10993-5:2009 (Tests for in vitro cytotoxicity; http://www.iso.org/iso/catalogue_detail.htm? csnumber = 36406). L929 and VERO cells were plated into 96-well plates at a density of 1.0 × 10^4/100 μl/well in culture medium and allowed to attach for 24 h before treatment. Afterwards, culture medium in the plates was replaced by 100 μl compounds suspension at concentration of 0–125 μg/ml and the cells were exposed for 24 h. Then 1 mg/ml MTT (50 μl/well) was added to each well and incubated at 37 °C, 10 % CO2 for 2 h. Mitochondrial dehydrogenases of viable cells reduce the yellowish water-soluble MTT to water-insoluble formazan crystals, which were solubilized with dimethyl sulfoxide (DMSO). The cell culture medium was aspirated cautiously, after which 150 μl DMSO was added to each well and mixed thoroughly. Optical density (OD) was read on the ELISA reader (Multiskan EX, Labsystems; http://www.mtxlsi.com/multiskan_EX.htm) at 550 nm. The results were expressed as percentage viability compared with the treated 2.5% DMSO controls. All experiments were performed in triplicate.

As to `CC(=O)Nc1ccc(-c2csc(N/N=C(\C)c3ccc(Nc4nc(N)nc(N)n4)cc3)n2)cc1` [Compound 4g, (E)-N^2-(4-(2-(2-(1-(4-(4,6-diamino-1,3,5-triazin-2-yloamino)phenyl)ethylidene)hydraziny)thiazol-4-yl)phenyl)-acetamide], the “IC50 A549” value in series [1] is recorded as “no antiproliferative activity”.
`C/C(=N\Nc1nc(-c2ccc(C)cc2)cs1)c1ccc(Nc2nc(N)nc(N)n2)cc1` [Compound 4c, (E)-N^2-(4-(1-(2-(4-(4-tolyl)-1,3-thiazol-2-yl)hydrazinylidene)ethyl)phenyl)-1,3,5-triazine-2,4,6-triamine]: the melting point lay within 231 to 233 °C. In series [2], the viability at 24 h, 0.9 µg/ml was determined as 92.4%; the viability at 24 h, 1.8 µg/ml was 102%; the viability at 24 h, 3.9 µg/ml came to 99%; the viability at 24 h, 7.8 µg/ml came out at 101%. In series [2], the viability at 24 h, 15.6 µg/ml was found to be 99.6%; the viability at 24 h, 31.2 µg/ml was 102%; the viability at 24 h, 62.5 µg/ml was found to be 112%; the viability at 24 h, 125 µg/ml amounted to 109%. Moreover, in series [1], the IC50 worked out at 62.4 ± 11.5 µg/mL. Besides, in series [3], the viability at 24 h, 0.9 µg/ml came to 98.2%; the viability at 24 h, 1.8 µg/ml came to 95.5%; the viability at 24 h, 3.9 µg/ml was determined as 98.2%; the viability at 24 h, 7.8 µg/ml came to 92.9%. Further, in series [3], the viability at 24 h, 15.6 µg/ml amounted to 102%; the viability at 24 h, 31.2 µg/ml was 105%; the viability at 24 h, 62.5 µg/ml stood at 106%; the viability at 24 h, 125 µg/ml worked out at 118%.
Regarding `C/C(=N\Nc1nc(-c2ccc(NS(C)(=O)=O)cc2)cs1)c1ccc(Nc2nc(N)nc(N)n2)cc1` [Compound 4j, (E)-N-(4-(2-(2-(1-(4-(4,6-diamino-1,3,5-triazin-2-yloamino)phenyl)ethylidene)hydrazinyl)thiazol-4-yl)phenyl)-methanesulfonamide], in series [1], the “IC50 A549” value was “no antiproliferative activity”.
As for `C/C(=N\Nc1nc(-c2ccc(Cl)c(Cl)c2)cs1)c1ccc(Nc2nc(N)nc(N)n2)cc1` [Compound 4i, (E)-N^2-(4-(1-(2-(4-(3,4-dichlorophenyl)-1,3-thiazol-2-yl)hydrazinylidene)ethyl)phenyl)-1,3,5-triazine-2,4,6-triamine], in series [2], the viability at 24 h, 0.9 µg/ml turned out to be 97.5%; the viability at 24 h, 1.8 µg/ml stood at 93.7%; the viability at 24 h, 3.9 µg/ml worked out at 93.9%; the viability at 24 h, 7.8 µg/ml was 92.6%. Further, in series [2], the viability at 24 h, 15.6 µg/ml is 97.3%; the viability at 24 h, 31.2 µg/ml amounted to 112%; the viability at 24 h, 62.5 µg/ml stood at 111%. For the same compound, in series [1], the IC50 worked out at 57.5 ± 20.7 µg/mL. In series [3], the viability at 24 h, 0.9 µg/ml worked out at 101%; the viability at 24 h, 1.8 µg/ml was 97.9%; the viability at 24 h, 3.9 µg/ml came to 96.1%; the viability at 24 h, 7.8 µg/ml amounted to 100%. Besides, in series [3], the viability at 24 h, 15.6 µg/ml stood at 98.1%; the viability at 24 h, 31.2 µg/ml was 108%; the viability at 24 h, 62.5 µg/ml is 100%.
Take `C/C(=N\Nc1nc(-c2cc3ccccc3oc2=O)cs1)c1ccc(Nc2nc(N)nc(N)n2)cc1` [Compound 4f, (E)-3-(2-(2-(1-(4-(4,6-diamino-1,3,5-triazin-2-yloamino)phenyl)ethylidene)hydrazinyl)thiazol-4-yl)-2H-chromen-2-on]: the “IC50 A549” value in series [1] is on record as “no antiproliferative activity”.
With `C/C(=N\Nc1nc(-c2ccc([N+](=O)[O-])cc2)cs1)c1ccc(Nc2nc(N)nc(N)n2)cc1` [Compound 4h, (E)-N^2-(4-(1-(2-(4-(4-nitrophenyl)-1,3-thiazol-2-yl)hydrazinylidene)ethyl)phenyl)-1,3,5-triazine-2,4,6-triamine], in series [2], the viability at 24 h, 0.9 µg/ml came out at 104%; the viability at 24 h, 1.8 µg/ml is 99.4%; the viability at 24 h, 3.9 µg/ml stood at 106%; the viability at 24 h, 7.8 µg/ml amounted to 109%. For the same compound, in series [2], the viability at 24 h, 15.6 µg/ml worked out at 110%; the viability at 24 h, 31.2 µg/ml was 109%; the viability at 24 h, 62.5 µg/ml stood at 109%; the viability at 24 h, 125 µg/ml is 104%. The IC50 in series [1] was 33.6 ± 2.42 µg/mL. In series [3], the viability at 24 h, 0.9 µg/ml was 100%; the viability at 24 h, 1.8 µg/ml amounted to 98.5%; the viability at 24 h, 3.9 µg/ml is 100%; the viability at 24 h, 7.8 µg/ml was determined as 105%. Moreover, in series [3], the viability at 24 h, 15.6 µg/ml was 105%; the viability at 24 h, 31.2 µg/ml amounted to 114%; the viability at 24 h, 62.5 µg/ml is 118%; the viability at 24 h, 125 µg/ml was determined as 104%.

(Values after publication PMC5854716, “Synthesis, molecular docking, ctDNA interaction, DFT calculation and evaluation of antiproliferative and anti-Toxoplasma gondii activities of 2,4-diaminotriazine-thiazole derivatives” (Medicinal Chemistry Research, 2018).)
